Data taken from the kinase profiling compilation of Christmann-Franck et al. (2016).

How the values were obtained:
Assay in all cases: radiometric filter-binding kinase assay, Kinase HotSpot
Conditions in all cases: compound 0.5 µM; ATP 10 µM
DAPK2 (human) = DAPK2 (human) (UniProt Q9UIK4)
EPHA3 (human) = EPHA3 (human) (UniProt P29320)
TAOK3 (human) = TAOK3 (human) (UniProt Q9H2K8)
EGFR (human) = EGFR (human) (UniProt P00533)
MAP4K2 (human) = MAP4K2 (human) (UniProt Q12851)
CAMK2D (human) = CAMK2D (human) (UniProt Q13557)
MUSK (human) = MUSK (human) (UniProt O15146)
LCK (human) = LCK (human) (UniProt P06239)
TSSK2 (human) = TSSK2 (human) (UniProt Q96PF2)
EPHA2 (human) = EPHA2 (human) (UniProt P29317)
MAPKAPK5 (human) = MAPKAPK5 (human) (UniProt Q8IW41)
MKNK2 (human) = MKNK2 (human) (UniProt Q9HBH9)
PAK1 (human) = PAK1 (human) (UniProt Q13153)
MARK4 (human) = MARK4 (human) (UniProt Q96L34)
CLK4 (human) = CLK4 (human) (UniProt Q9HAZ1)
MARK2 (human) = MARK2 (human) (UniProt Q7KZI7)
EPHB1 (human) = EPHB1 (human) (UniProt P54762)
TTK (human) = TTK (human) (UniProt P33981)
GRK4 (human) = GRK4 (human) (UniProt P32298)
FER (human) = FER (human) (UniProt P16591)
DCLK2 (human) = DCLK2 (human) (UniProt Q8N568)
LIMK1 (human) = LIMK1 (human) (UniProt P53667)
SRMS (human) = SRMS (human) (UniProt Q9H3Y6)
MAP4K4 (human) = MAP4K4 (human) (UniProt O95819)
PDPK1 (human) = PDPK1 (human) (UniProt O15530)
GRK6 (human) = GRK6 (human) (UniProt P43250)
VRK1 (human) = VRK1 (human) (UniProt Q99986)
NLK (human) = NLK (human) (UniProt Q9UBE8)
MAPKAPK3 (human) = MAPKAPK3 (human) (UniProt Q16644)
STK39 (human) = STK39 (human) (UniProt Q9UEW8)
PRKCB2 (human) = PRKCB2 (human) (UniProt P05771)
GSK3B (human) = GSK3B (human) (UniProt P49841)
CDK5 CDK5R1 p35 (human) = CDK5 CDK5R1 p35 (human) (UniProt Q00535+Q15078)
PRKCB1 (human) = PRKCB1 (human) (UniProt P05771)
HIPK1 (human) = HIPK1 (human) (UniProt Q86Z02)
HIPK4 (human) = HIPK4 (human) (UniProt Q8NE63)
AXL (human) = AXL (human) (UniProt P30530)
PAK6 (human) = PAK6 (human) (UniProt Q9NQU5)
CLK2 (human) = CLK2 (human) (UniProt P49760)
MAPKAPK2 (human) = MAPKAPK2 (human) (UniProt P49137)
CDK2 CCNE1 (human) = CDK2 CCNE1 (human) (UniProt P24941+P24864)
RPS6KA3 KD1 KD2 (human) = RPS6KA3 KD1 KD2 (human) (UniProt P51812)

Sequence of HIPK4 (human) (Q8NE63 whole entry, looked up): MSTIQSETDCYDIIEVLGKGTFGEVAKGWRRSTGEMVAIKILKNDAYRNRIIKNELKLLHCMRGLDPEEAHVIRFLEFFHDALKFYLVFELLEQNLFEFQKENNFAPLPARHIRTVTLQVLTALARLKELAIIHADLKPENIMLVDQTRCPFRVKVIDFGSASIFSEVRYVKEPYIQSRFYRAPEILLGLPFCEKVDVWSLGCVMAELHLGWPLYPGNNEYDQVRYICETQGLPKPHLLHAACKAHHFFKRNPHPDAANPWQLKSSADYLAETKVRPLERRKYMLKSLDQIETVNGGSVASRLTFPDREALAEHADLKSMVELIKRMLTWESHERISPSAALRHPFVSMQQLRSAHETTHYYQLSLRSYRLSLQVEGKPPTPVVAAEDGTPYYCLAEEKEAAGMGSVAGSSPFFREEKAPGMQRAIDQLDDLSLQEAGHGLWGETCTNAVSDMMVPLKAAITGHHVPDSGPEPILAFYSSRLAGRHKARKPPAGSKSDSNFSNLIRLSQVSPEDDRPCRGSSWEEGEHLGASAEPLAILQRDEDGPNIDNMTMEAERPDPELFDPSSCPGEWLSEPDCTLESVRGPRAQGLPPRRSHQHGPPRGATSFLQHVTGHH
Sequence of PAK6 (human) (Q9NQU5 whole entry, looked up): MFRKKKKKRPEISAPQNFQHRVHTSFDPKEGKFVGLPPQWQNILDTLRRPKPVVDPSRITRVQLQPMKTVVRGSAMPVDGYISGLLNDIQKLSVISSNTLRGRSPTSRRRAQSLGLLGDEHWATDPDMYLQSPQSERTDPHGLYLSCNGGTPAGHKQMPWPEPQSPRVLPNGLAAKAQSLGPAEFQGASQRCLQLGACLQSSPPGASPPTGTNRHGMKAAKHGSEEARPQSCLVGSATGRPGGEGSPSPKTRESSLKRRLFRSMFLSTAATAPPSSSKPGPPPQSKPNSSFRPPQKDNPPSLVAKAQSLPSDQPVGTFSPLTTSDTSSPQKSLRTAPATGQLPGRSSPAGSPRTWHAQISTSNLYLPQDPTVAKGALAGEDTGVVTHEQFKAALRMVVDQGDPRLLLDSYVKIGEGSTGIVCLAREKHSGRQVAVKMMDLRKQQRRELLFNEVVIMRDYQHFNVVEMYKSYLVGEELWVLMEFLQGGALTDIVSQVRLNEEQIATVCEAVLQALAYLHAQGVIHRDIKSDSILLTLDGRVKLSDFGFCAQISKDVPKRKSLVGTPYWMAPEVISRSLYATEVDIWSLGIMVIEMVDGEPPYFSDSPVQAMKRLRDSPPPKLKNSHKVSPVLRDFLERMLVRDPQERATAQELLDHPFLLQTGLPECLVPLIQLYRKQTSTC
Sequence of MKNK2 (human) (Q9HBH9 whole entry, looked up): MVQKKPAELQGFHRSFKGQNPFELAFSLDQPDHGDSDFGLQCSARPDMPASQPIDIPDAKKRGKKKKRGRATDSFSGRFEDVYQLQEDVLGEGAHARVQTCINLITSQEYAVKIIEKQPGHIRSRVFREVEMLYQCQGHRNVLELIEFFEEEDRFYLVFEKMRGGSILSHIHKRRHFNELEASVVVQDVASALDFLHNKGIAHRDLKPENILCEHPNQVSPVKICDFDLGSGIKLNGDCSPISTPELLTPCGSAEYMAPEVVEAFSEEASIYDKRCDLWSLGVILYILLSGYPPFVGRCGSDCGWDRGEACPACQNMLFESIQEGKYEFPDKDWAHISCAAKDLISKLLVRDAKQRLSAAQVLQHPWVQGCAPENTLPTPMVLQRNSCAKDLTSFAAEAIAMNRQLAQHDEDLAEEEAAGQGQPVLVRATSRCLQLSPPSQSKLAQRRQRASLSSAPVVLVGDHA
Sequence of MAPKAPK5 (human) (Q8IW41 whole entry, looked up): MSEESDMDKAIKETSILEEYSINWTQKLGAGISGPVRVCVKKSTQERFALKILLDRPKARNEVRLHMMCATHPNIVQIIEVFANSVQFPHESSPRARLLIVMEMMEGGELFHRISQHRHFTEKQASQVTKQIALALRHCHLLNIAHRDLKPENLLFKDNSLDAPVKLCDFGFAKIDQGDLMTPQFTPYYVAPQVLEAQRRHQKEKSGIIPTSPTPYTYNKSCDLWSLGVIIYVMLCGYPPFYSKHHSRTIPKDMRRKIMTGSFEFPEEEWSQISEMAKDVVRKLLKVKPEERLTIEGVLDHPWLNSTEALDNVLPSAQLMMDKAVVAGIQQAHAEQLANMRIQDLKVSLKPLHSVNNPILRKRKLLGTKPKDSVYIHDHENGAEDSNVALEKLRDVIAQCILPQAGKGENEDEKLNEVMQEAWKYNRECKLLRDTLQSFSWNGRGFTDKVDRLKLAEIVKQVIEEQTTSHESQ
Sequence of CLK4 (human) (Q9HAZ1 whole entry, looked up): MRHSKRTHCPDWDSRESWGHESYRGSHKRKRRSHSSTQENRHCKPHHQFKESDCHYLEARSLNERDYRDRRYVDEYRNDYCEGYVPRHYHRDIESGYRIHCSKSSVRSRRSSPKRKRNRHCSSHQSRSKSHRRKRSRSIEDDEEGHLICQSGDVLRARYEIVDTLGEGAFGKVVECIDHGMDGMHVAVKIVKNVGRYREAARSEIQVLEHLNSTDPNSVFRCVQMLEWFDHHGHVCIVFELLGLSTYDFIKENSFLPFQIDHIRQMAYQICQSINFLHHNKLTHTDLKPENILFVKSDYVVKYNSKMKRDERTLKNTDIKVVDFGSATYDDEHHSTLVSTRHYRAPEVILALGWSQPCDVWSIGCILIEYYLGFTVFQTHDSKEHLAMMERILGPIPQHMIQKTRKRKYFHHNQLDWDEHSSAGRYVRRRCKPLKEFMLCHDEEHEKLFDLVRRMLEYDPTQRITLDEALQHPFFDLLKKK
Sequence of DCLK2 (human) (Q8N568 whole entry, looked up): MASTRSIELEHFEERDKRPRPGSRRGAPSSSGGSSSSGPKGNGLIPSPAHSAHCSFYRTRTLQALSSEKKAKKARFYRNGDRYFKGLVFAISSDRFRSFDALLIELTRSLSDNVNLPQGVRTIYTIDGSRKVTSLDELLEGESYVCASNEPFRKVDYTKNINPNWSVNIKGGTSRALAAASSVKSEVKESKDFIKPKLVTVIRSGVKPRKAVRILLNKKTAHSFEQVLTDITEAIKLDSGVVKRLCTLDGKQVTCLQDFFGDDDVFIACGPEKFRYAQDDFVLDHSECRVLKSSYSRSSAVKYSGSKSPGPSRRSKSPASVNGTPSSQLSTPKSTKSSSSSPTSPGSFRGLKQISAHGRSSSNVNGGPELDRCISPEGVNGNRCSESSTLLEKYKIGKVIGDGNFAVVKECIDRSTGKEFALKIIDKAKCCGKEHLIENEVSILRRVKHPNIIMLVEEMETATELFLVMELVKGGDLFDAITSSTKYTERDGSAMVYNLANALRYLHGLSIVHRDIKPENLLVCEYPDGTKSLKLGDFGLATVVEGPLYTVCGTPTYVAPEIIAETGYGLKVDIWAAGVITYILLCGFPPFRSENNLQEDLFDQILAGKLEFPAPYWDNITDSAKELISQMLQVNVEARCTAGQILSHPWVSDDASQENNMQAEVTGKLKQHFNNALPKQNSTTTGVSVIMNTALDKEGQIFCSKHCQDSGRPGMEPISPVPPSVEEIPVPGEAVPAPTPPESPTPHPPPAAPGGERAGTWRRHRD
Sequence of TAOK3 (human) (Q9H2K8 whole entry, looked up): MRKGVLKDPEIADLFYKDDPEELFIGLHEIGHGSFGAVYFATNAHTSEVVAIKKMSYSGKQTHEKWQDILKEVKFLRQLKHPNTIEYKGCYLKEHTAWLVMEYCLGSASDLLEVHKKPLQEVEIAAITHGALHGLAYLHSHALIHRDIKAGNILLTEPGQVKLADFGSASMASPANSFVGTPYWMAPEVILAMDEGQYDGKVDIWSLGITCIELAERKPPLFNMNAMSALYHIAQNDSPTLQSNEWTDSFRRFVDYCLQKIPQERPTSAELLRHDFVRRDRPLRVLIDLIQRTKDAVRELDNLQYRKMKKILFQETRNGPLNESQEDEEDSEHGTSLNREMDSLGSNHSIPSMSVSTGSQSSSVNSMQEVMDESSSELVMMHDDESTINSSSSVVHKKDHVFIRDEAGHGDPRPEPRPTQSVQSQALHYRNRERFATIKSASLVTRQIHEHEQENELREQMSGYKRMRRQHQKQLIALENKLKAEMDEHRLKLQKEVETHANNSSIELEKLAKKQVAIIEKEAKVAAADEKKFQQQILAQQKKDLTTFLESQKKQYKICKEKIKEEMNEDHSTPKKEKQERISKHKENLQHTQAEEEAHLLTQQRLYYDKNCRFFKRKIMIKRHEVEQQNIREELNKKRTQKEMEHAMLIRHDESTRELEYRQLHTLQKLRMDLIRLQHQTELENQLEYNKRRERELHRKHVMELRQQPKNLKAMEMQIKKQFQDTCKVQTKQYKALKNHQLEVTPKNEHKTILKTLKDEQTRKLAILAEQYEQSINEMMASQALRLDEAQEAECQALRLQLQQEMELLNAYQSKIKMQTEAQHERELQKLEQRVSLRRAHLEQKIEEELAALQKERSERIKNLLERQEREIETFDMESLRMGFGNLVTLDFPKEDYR
Sequence of GRK4 (human) (P32298 whole entry, looked up): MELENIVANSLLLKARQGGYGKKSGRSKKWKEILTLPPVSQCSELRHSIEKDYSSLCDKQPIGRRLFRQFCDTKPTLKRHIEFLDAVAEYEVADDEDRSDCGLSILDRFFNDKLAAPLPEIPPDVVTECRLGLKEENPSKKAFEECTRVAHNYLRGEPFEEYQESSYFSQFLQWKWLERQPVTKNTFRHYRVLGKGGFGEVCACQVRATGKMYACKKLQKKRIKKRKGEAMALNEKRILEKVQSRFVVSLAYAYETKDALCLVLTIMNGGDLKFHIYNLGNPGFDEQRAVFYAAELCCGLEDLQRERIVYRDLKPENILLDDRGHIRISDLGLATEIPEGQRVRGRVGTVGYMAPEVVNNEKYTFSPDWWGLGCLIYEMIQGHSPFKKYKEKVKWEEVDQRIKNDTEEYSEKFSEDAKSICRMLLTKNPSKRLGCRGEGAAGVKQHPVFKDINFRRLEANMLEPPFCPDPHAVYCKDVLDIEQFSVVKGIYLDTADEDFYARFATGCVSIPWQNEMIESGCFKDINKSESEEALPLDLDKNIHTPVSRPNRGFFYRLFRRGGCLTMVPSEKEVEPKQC

Question: COc1ccc2c(c1)/C(=C/c1cnc[nH]1)C(O)=N2 was tested. Which residual activity (DAPK2 (human)) did it give?
Answer: Its residual activity is 97.3%.

Question: What about the residual activity (EPHA3 (human)) of the same compound?
Answer: The residual activity was 93.3%.

Question: What about the residual activity (TAOK3 (human)) of the same compound?
Answer: The residual activity was 44%.

Question: What about the residual activity (EGFR (human)) of the same compound?
Answer: The residual activity was 99.4%.

Question: And the residual activity (MAP4K2 (human))?
Answer: The residual activity was 42.6%.

Question: And the residual activity (CAMK2D (human))?
Answer: The residual activity was 78.8%.

Question: What about the residual activity (MUSK (human)) of the same compound?
Answer: The residual activity was 78.3%.

Question: And the residual activity (LCK (human))?
Answer: The residual activity was 92%.

Question: And the residual activity (TSSK2 (human))?
Answer: Its residual activity is 97.3%.

Question: And the residual activity (EPHA2 (human))?
Answer: Its residual activity is 98.4%.

Question: What about the residual activity (MAPKAPK5 (human)) of the same compound?
Answer: Its residual activity is 95.2%.

Question: What about the residual activity (MKNK2 (human)) of the same compound?
Answer: The residual activity was 84.9%.

Question: What about the residual activity (PAK1 (human)) of the same compound?
Answer: The residual activity was 97.8%.

Question: What about the residual activity (MARK4 (human)) of the same compound?
Answer: Its residual activity is 37.4%.

Question: What about the residual activity (CLK4 (human)) of the same compound?
Answer: Its residual activity is 72.6%.

Question: What about the residual activity (MARK2 (human)) of the same compound?
Answer: Its residual activity is 50%.

Question: What about the residual activity (EPHB1 (human)) of the same compound?
Answer: Its residual activity is 92.2%.

Question: What about the residual activity (TTK (human)) of the same compound?
Answer: The residual activity was 59.9%.

Question: And the residual activity (GRK4 (human))?
Answer: The residual activity was 93.6%.

Question: And the residual activity (FER (human))?
Answer: Its residual activity is 88.4%.

Question: And the residual activity (DCLK2 (human))?
Answer: The residual activity was 96%.

Question: What about the residual activity (LIMK1 (human)) of the same compound?
Answer: The residual activity was 89.6%.

Question: What about the residual activity (SRMS (human)) of the same compound?
Answer: The residual activity was 103%.

Question: What about the residual activity (MAP4K4 (human)) of the same compound?
Answer: Its residual activity is 19.4%.

Question: What about the residual activity (PDPK1 (human)) of the same compound?
Answer: Its residual activity is 97.8%.

Question: And the residual activity (GRK6 (human))?
Answer: Its residual activity is 85.2%.

Question: What about the residual activity (VRK1 (human)) of the same compound?
Answer: Its residual activity is 91.2%.

Question: What about the residual activity (NLK (human)) of the same compound?
Answer: Its residual activity is 69.7%.

Question: And the residual activity (MAPKAPK3 (human))?
Answer: The residual activity was 102%.

Question: And the residual activity (STK39 (human))?
Answer: Its residual activity is 86.1%.

Question: What about the residual activity (PRKCB2 (human)) of the same compound?
Answer: The residual activity was 110%.

Question: What about the residual activity (GSK3B (human)) of the same compound?
Answer: The residual activity was 35.4%.

Question: And the residual activity (CDK5 CDK5R1 p35 (human))?
Answer: Its residual activity is -0.369%.

Question: What about the residual activity (PRKCB1 (human)) of the same compound?
Answer: The residual activity was 112%.

Question: What about the residual activity (HIPK1 (human)) of the same compound?
Answer: The residual activity was 98.9%.

Question: What about the residual activity (HIPK4 (human)) of the same compound?
Answer: The residual activity was 90.8%.

Question: What about the residual activity (AXL (human)) of the same compound?
Answer: Its residual activity is 94.3%.

Question: What about the residual activity (PAK6 (human)) of the same compound?
Answer: Its residual activity is 101%.

Question: What about the residual activity (CLK2 (human)) of the same compound?
Answer: The residual activity was 80.6%.

Question: What about the residual activity (MAPKAPK2 (human)) of the same compound?
Answer: The residual activity was 99.4%.

Question: COc1cc(Nc2c(C#N)cnc3cc(OCCCN4CCN(C)CC4)c(OC)cc23)c(Cl)cc1Cl was tested. Which residual activity (DAPK2 (human)) did it give?
Answer: The residual activity was 82.9%.

Question: What about the residual activity (EPHA3 (human)) of the same compound?
Answer: The residual activity was 31.7%.

Question: What about the residual activity (TAOK3 (human)) of the same compound?
Answer: Its residual activity is 71.3%.

Question: What about the residual activity (EGFR (human)) of the same compound?
Answer: The residual activity was 3.84%.

Question: What about the residual activity (MAP4K2 (human)) of the same compound?
Answer: The residual activity was 3.16%.

Question: What about the residual activity (CAMK2D (human)) of the same compound?
Answer: The residual activity was 94.6%.

Question: What about the residual activity (MUSK (human)) of the same compound?
Answer: The residual activity was 81.7%.

Question: What about the residual activity (LCK (human)) of the same compound?
Answer: Its residual activity is 1.88%.

Question: And the residual activity (TSSK2 (human))?
Answer: The residual activity was 83.9%.

Question: And the residual activity (MAPKAPK5 (human))?
Answer: The residual activity was 94.7%.

Question: What about the residual activity (MKNK2 (human)) of the same compound?
Answer: The residual activity was 98.7%.

Question: And the residual activity (PAK1 (human))?
Answer: Its residual activity is 11.7%.

Question: And the residual activity (MARK4 (human))?
Answer: Its residual activity is 60.6%.

Question: What about the residual activity (CLK4 (human)) of the same compound?
Answer: The residual activity was 76.6%.

Question: And the residual activity (MARK2 (human))?
Answer: The residual activity was 99.9%.

Question: What about the residual activity (EPHB1 (human)) of the same compound?
Answer: The residual activity was 11.8%.

Question: What about the residual activity (TTK (human)) of the same compound?
Answer: Its residual activity is 110%.

Question: What about the residual activity (GRK4 (human)) of the same compound?
Answer: The residual activity was 92.4%.

Question: And the residual activity (FER (human))?
Answer: Its residual activity is 54.6%.

Question: And the residual activity (DCLK2 (human))?
Answer: The residual activity was 98.4%.

Question: What about the residual activity (LIMK1 (human)) of the same compound?
Answer: Its residual activity is 96.4%.

Question: What about the residual activity (CDK2 CCNE1 (human)) of the same compound?
Answer: Its residual activity is 98.3%.

Question: What about the residual activity (SRMS (human)) of the same compound?
Answer: The residual activity was 90.6%.

Question: And the residual activity (RPS6KA3 KD1 KD2 (human))?
Answer: The residual activity was 80.1%.

Question: And the residual activity (MAP4K4 (human))?
Answer: The residual activity was 1.03%.

Question: What about the residual activity (PDPK1 (human)) of the same compound?
Answer: The residual activity was 89.8%.

Question: What about the residual activity (GRK6 (human)) of the same compound?
Answer: The residual activity was 99.5%.

Question: What about the residual activity (VRK1 (human)) of the same compound?
Answer: Its residual activity is 100%.

Question: And the residual activity (NLK (human))?
Answer: The residual activity was 101%.

Question: What about the residual activity (MAPKAPK3 (human)) of the same compound?
Answer: The residual activity was 98.2%.

Question: And the residual activity (STK39 (human))?
Answer: Its residual activity is 93.6%.

Question: And the residual activity (PRKCB2 (human))?
Answer: Its residual activity is 88.4%.

Question: What about the residual activity (GSK3B (human)) of the same compound?
Answer: The residual activity was 99.9%.

Question: And the residual activity (CDK5 CDK5R1 p35 (human))?
Answer: Its residual activity is 98.3%.

Question: And the residual activity (PRKCB1 (human))?
Answer: The residual activity was 99.8%.

Question: And the residual activity (HIPK1 (human))?
Answer: The residual activity was 96.3%.

Question: What about the residual activity (HIPK4 (human)) of the same compound?
Answer: Its residual activity is 74.6%.

Question: What about the residual activity (AXL (human)) of the same compound?
Answer: The residual activity was 37.6%.

Question: And the residual activity (PAK6 (human))?
Answer: The residual activity was 105%.

Question: And the residual activity (CLK2 (human))?
Answer: The residual activity was 69.3%.

Question: What about the residual activity (MAPKAPK2 (human)) of the same compound?
Answer: Its residual activity is 94.7%.

Question: What does the source list for Cc1cncc2cccc(S(=O)(=O)N3CCCN(C(=O)CN)C[C@H]3C)c12?
Answer: residual activity (DAPK2 (human)): 103%; residual activity (EPHA3 (human)): 98.7%; residual activity (TAOK3 (human)): 96.2%; residual activity (EGFR (human)): 98.7%; residual activity (MAP4K2 (human)): 106%; residual activity (CAMK2D (human)): 108%; residual activity (MUSK (human)): 88.7%; residual activity (LCK (human)): 97%; residual activity (TSSK2 (human)): 99.6%; residual activity (MAPKAPK5 (human)): 94.2%; residual activity (MKNK2 (human)): 83.8%; residual activity (PAK1 (human)): 98.1%; residual activity (MARK4 (human)): 95.7%; residual activity (CLK4 (human)): 105%; residual activity (MARK2 (human)): 89.1%; residual activity (EPHB1 (human)): 88.7%; residual activity (TTK (human)): 111%; residual activity (GRK4 (human)): 94%; residual activity (FER (human)): 66%; residual activity (DCLK2 (human)): 89%; residual activity (LIMK1 (human)): 91.9%; residual activity (CDK2 CCNE1 (human)): 92.3%; residual activity (SRMS (human)): 106%; residual activity (RPS6KA3 KD1 KD2 (human)): 91.8%; residual activity (MAP4K4 (human)): 87.6%; residual activity (PDPK1 (human)): 97.8%; residual activity (GRK6 (human)): 85.5%; residual activity (VRK1 (human)): 102%; residual activity (NLK (human)): 99.6%; residual activity (MAPKAPK3 (human)): 98.8%; residual activity (STK39 (human)): 95.3%; residual activity (PRKCB2 (human)): 91.3%; residual activity (CDK5 CDK5R1 p35 (human)): 97.4%; residual activity (PRKCB1 (human)): 99.4%; residual activity (HIPK1 (human)): 99.1%; residual activity (HIPK4 (human)): 91.1%; residual activity (AXL (human)): 98.8%; residual activity (PAK6 (human)): 108%; residual activity (CLK2 (human)): 102%; residual activity (MAPKAPK2 (human)): 103%
